Values belong to the molecule of their own block, whether it stands above or below them.
How the values were obtained:
[1] = target: c-Cbl (Homo sapiens (Human), UniProt P22681); assay: C-Cbl LCK Ub TR-FRET assay (C-cbl Lck HTRF); type: biochemical
Outline: (§1)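 Detection reagents added, brief spin, 20 min RT. IC50 fit normalized to no-LCK (low) and DMSO (high) controls.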

[2] = target: c-Cbl (residues 47-435) (Homo sapiens (Human), UniProt P22681); assay: c-Cbl SPR assay; type: binding; conditions: 20° C.
Outline: (§2)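 Binding was measured by SPR and fitted to a 1:1 model from multi-cycle kinetics with double referencing, 6 concentrations in 2-fold dilution. Alternatively, single-cycle titrations up to 500 nM (120 s contact) were fitted with kd fixed from a single-exponential fit of chaser-measured % compound bound versus time.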

[3] = target: Cbl-b (Homo sapiens (Human), UniProt Q13191); assay: Cbl-b LCK Ub TR-FRET assay (Cbl-b Lck HTRF); type: biochemical; conditions: for IC50: Cbl-b LCK Ub TR-FRET, Example 121; for (fold-selectivity) Cbl-b and C-Cbl Selectivity: ratio C-cbl Lck HTRF IC50 / Cbl-b Lck HTRF IC50
Outline: as §1

[4] = target: Human Cbl-b (residues 40-426) (Homo sapiens (Human), UniProt Q13191); assay: Cbl-b SPR assay; type: binding; conditions: for Fold of selectivity: C-cbl SPR Kd vs Cbl-b SPR Kd; for Kd: SPR, 20° C.
Outline: as §2

Sequence of c-Cbl (residues 47-435) (P22681 47-435): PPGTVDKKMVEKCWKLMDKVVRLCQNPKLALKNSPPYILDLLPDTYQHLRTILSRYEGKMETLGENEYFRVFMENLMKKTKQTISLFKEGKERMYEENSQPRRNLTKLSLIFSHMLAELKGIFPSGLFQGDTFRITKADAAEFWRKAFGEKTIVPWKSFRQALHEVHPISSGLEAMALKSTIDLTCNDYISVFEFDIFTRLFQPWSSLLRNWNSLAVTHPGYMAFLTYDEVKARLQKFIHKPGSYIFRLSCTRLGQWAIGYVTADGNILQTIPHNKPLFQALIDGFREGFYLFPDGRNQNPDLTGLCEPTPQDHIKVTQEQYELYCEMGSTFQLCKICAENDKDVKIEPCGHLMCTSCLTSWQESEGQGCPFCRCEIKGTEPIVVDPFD
Sequence of c-Cbl (P22681 47-435): as above
Sequence of Human Cbl-b (residues 40-426) (Q13191 40-426): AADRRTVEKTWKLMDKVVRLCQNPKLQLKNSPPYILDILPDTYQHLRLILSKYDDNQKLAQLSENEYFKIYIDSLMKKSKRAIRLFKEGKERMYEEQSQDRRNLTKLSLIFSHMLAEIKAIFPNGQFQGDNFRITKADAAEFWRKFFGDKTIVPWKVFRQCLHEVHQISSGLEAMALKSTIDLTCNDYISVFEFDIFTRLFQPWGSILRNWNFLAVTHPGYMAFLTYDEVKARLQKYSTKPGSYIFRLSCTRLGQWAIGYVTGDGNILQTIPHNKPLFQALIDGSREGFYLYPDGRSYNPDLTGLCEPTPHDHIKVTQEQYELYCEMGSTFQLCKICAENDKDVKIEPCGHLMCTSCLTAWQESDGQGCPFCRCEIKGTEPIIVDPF
Sequence of Cbl-b (Q13191 40-426): as above

SMILES: Cn1cnnc1[C@@H](c1cccc(N2Cc3c(cc(CNCC(C)(C)F)cc3C(F)(F)F)C2=O)c1)C1COC1 [Compound 463, (R)-6-(((2-fluoro-2-methylpropyl)amino)methyl)-2-(3-((4-methyl-4H-1,2,4-triazol-3-yl)(oxetan-3-yl)methyl)phenyl)-4-(trifluoromethyl)isoindolin-1-one]
IC50 [1]: 0.012 µM | Kd [2]: 0.017 µM | IC50 [3]: 0.0065 µM | (fold-selectivity) Cbl-b and C-Cbl Selectivity [3]: 1.9x | Fold of selectivity [4]: 5.2× | Kd [4]: 0.0032 µM

SMILES: CO[C@H]1C[C@](c2cccc(N3Cc4c(cc(CN[C@H](C)C5CCC5)cc4C(F)(F)F)C3=O)c2)(c2nncn2C)C1 [Compound 467]
IC50 [1]: 0.086 µM | Kd [2]: 0.12 µM | IC50 [3]: 0.022 µM | (fold-selectivity) Cbl-b and C-Cbl Selectivity [3]: 4.0x | Fold of selectivity [4]: 7.6× | Kd [4]: 0.016 µM

SMILES: CO[C@H]1C[C@](c2cccc(N3Cc4c(cc(CN[C@@H](C)C5CCC5)cc4C(F)(F)F)C3=O)c2)(c2nncn2C)C1 [Compound 470, 6-((((S)-1-cyclobutylethyl)amino)methyl)-2-(3-((1r,3S)-3-methoxy-1-(4-methyl-4H-1,2,4-triazol-3-yl)cyclobutyl)phenyl)-4-(trifluoromethyl)isoindolin-1-one]
IC50 [1]: 0.0045 µM | Kd [2]: 0.0015 µM | IC50 [3]: 0.0044 µM | (fold-selectivity) Cbl-b and C-Cbl Selectivity [3]: 1.0x | Fold of selectivity [4]: 2.9× | Kd [4]: 0.00035 µM

SMILES: CO[C@H]1C[C@](c2cccc(N3Cc4c(cc(CNC5(C)CC(F)(F)C5)cc4C(F)(F)F)C3=O)c2)(c2nncn2C)C1 [Compound 471, 6-(((3,3-difluoro-1-methylcyclobutyl)amino)methyl)-2-(3-((1r,3r)-3-methoxy-1-(4-methyl-4H-1,2,4-triazol-3-yl)cyclobutyl)phenyl)-4-(trifluoromethyl)isoindolin-1-one]
IC50 [1]: 0.036 µM | Kd [2]: 0.091 µM | IC50 [3]: 0.0083 µM | (fold-selectivity) Cbl-b and C-Cbl Selectivity [3]: 4.3x | Fold of selectivity [4]: 11× | Kd [4]: 0.0083 µM

SMILES: CO[C@H]1C[C@](c2cccc(N3Cc4c(cc(CNCC5(O)CC5)cc4C(F)(F)F)C3=O)c2)(c2nncn2C)C1 [Compound 473, 6-((((1-hydroxycyclopropyl)methyl)amino)methyl)-2-(3-((1r,3r)-3-methoxy-1-(4-methyl-4H-1,2,4-triazol-3-yl)cyclobutyl)phenyl)-4-(trifluoromethyl)isoindolin-1-one]
IC50 [1]: 0.05 µM | Kd [2]: 0.085 µM | IC50 [3]: 0.014 µM | (fold-selectivity) Cbl-b and C-Cbl Selectivity [3]: 3.6x | Fold of selectivity [4]: 11× | Kd [4]: 0.0076 µM

SMILES: CO[C@H]1C[C@](c2cccc(N3Cc4c(cc(CNCC5(C)CC5)cc4C(F)(F)F)C3=O)c2)(c2nncn2C)C1 [Compound 474, 2-(3-((1r,3r)-3-methoxy-1-(4-methyl-4H-1,2,4-triazol-3-yl)cyclobutyl)phenyl)-6-((((1-methylcyclopropyl)methyl)amino)methyl)-4-(trifluoromethyl)isoindolin-1-one]
IC50 [1]: 0.051 µM | Kd [2]: 0.068 µM | IC50 [3]: 0.011 µM | (fold-selectivity) Cbl-b and C-Cbl Selectivity [3]: 4.8x | Fold of selectivity [4]: 14× | Kd [4]: 0.0048 µM

SMILES: CO[C@H]1C[C@](c2cccc(N3Cc4c(cc(CNC5(C)CC5)cc4C(F)(F)F)C3=O)c2)(c2nncn2C)C1 [Compound 475, 2-(3-((1r,3r)-3-methoxy-1-(4-methyl-4H-1,2,4-triazol-3-yl)cyclobutyl)phenyl)-6-(((1-methylcyclopropyl)amino)methyl)-4-(trifluoromethyl)isoindolin-1-one]
IC50 [1]: 0.023 µM | Kd [2]: 0.045 µM | IC50 [3]: 0.0087 µM | (fold-selectivity) Cbl-b and C-Cbl Selectivity [3]: 3.3x | Fold of selectivity [4]: 13× | Kd [4]: 0.0036 µM

Further lines, results first:

IC50 [1]: 0.57 µM | Kd [2]: 1.1 µM | IC50 [3]: 0.082 µM | (fold-selectivity) Cbl-b and C-Cbl Selectivity [3]: 7.1x | Fold of selectivity [4]: 11× | Kd [4]: 0.095 µM
SMILES: CO[C@H]1C[C@](c2cccc(N3Cc4c(cc(CNC5COC5)cc4C(F)(F)F)C3=O)c2)(c2nncn2C)C1 [Compound 476, 2-(3-((1r,3r)-3-methoxy-1-(4-methyl-4H-1,2,4-triazol-3-yl)cyclobutyl)phenyl)-6-((oxetan-3-ylamino)methyl)-4-(trifluoromethyl)isoindolin-1-one]

IC50 [1]: 0.093 µM | Kd [2]: 0.13 µM | IC50 [3]: 0.017 µM | (fold-selectivity) Cbl-b and C-Cbl Selectivity [3]: 5.6x | Fold of selectivity [4]: 11× | Kd [4]: 0.011 µM
SMILES: CO[C@H]1C[C@](c2cccc(N3Cc4c(cc(CNC5CC5)cc4C(F)(F)F)C3=O)c2)(c2nncn2C)C1 [Compound 477, 6-((cyclopropylamino)methyl)-2-(3-((1r,3r)-3-methoxy-1-(4-methyl-4H-1,2,4-triazol-3-yl)cyclobutyl)phenyl)-4-(trifluoromethyl)isoindolin-1-one]

IC50 [1]: 0.84 µM | Kd [2]: 1.1 µM | IC50 [3]: 0.13 µM | (fold-selectivity) Cbl-b and C-Cbl Selectivity [3]: 6.4x | Fold of selectivity [4]: 8.7× | Kd [4]: 0.12 µM
SMILES: CO[C@H]1C[C@](c2cccc(N3Cc4c(cc(CN5CC(C)(O)C5)cc4C(F)(F)F)C3=O)c2)(c2nncn2C)C1 [Compound 478, 6-((3-hydroxy-3-methylazetidin-1-yl)methyl)-2-(3-((1r,3r)-3-methoxy-1-(4-methyl-4H-1,2,4-triazol-3-yl)cyclobutyl)phenyl)-4-(trifluoromethyl)isoindolin-1-one]

IC50 [1]: 0.28 µM | Kd [2]: 0.49 µM | IC50 [3]: 0.034 µM | (fold-selectivity) Cbl-b and C-Cbl Selectivity [3]: 7.9x | Fold of selectivity [4]: 11× | Kd [4]: 0.045 µM
SMILES: CO[C@H]1C[C@](c2cccc(N3Cc4c(cc(CN5CCC5)cc4C(F)(F)F)C3=O)c2)(c2nncn2C)C1 [Compound 480, 6-(azetidin-1-ylmethyl)-2-(3-((1r,3r)-3-methoxy-1-(4-methyl-4H-1,2,4-triazol-3-yl)cyclobutyl)phenyl)-4-(trifluoromethyl)isoindolin-1-one]

IC50 [1]: 0.025 µM | Kd [2]: 0.027 µM | IC50 [3]: 0.0062 µM | (fold-selectivity) Cbl-b and C-Cbl Selectivity [3]: 4.0x | Fold of selectivity [4]: 18× | Kd [4]: 0.0015 µM
SMILES: CO[C@H]1C[C@](c2cccc(N3Cc4c(cc(CNCC(C)(C)C)cc4C(F)(F)F)C3=O)c2)(c2nncn2C)C1 [Compound 481, 2-(3-((1r,3r)-3-methoxy-1-(4-methyl-4H-1,2,4-triazol-3-yl)cyclobutyl)phenyl)-6-((neopentylamino)methyl)-4-(trifluoromethyl)isoindolin-1-one]

IC50 [1]: 0.02 µM | Kd [2]: 0.03 µM | IC50 [3]: 0.0053 µM | (fold-selectivity) Cbl-b and C-Cbl Selectivity [3]: 3.7x | Fold of selectivity [4]: 15× | Kd [4]: 0.0019 µM
SMILES: CO[C@H]1C[C@](c2cccc(N3Cc4c(cc(CNCC5CC5(F)F)cc4C(F)(F)F)C3=O)c2)(c2nncn2C)C1 (stereo partly drawn) [Compound 482, 6-((((2,2-difluorocyclopropyl)methyl)amino)methyl)-2-(3-((1r,3r)-3-methoxy-1-(4-methyl-4H-1,2,4-triazol-3-yl)cyclobutyl)phenyl)-4-(trifluoromethyl)isoindolin-1-one]

IC50 [1]: 0.058 µM | Kd [2]: 0.084 µM | IC50 [3]: 0.01 µM | (fold-selectivity) Cbl-b and C-Cbl Selectivity [3]: 5.8x | Fold of selectivity [4]: 18× | Kd [4]: 0.0046 µM
SMILES: CO[C@H]1C[C@](c2cccc(N3Cc4c(cc(CNCC(C)(C)F)cc4C(F)(F)F)C3=O)c2)(c2nncn2C)C1 [Compound 483, 6-(((2-fluoro-2-methylpropyl)amino)methyl)-2-(3-((1r,3r)-3-methoxy-1-(4-methyl-4H-1,2,4-triazol-3-yl)cyclobutyl)phenyl)-4-(trifluoromethyl)isoindolin-1-one]

IC50 [1]: 0.26 µM | Kd [2]: 0.2 µM | IC50 [3]: 0.026 µM | (fold-selectivity) Cbl-b and C-Cbl Selectivity [3]: 10x | Fold of selectivity [4]: 13× | Kd [4]: 0.013 µM
SMILES: CO[C@H]1C[C@](c2cccc(N3Cc4c(cc(CN[C@]5(C)C[C@H](O)C5)cc4C(F)(F)F)C3=O)c2)(c2nncn2C)C1 [Compound 484, 6-((((1s,3S)-3-hydroxy-1-methylcyclobutyl)amino)methyl)-2-(3-((1r,3R)-3-methoxy-1-(4-methyl-4H-1,2,4-triazol-3-yl)cyclobutyl)phenyl)-4-(trifluoromethyl)isoindolin-1-one]

IC50 [1]: 0.067 µM | Kd [2]: 0.11 µM | IC50 [3]: 0.013 µM | (fold-selectivity) Cbl-b and C-Cbl Selectivity [3]: 5.2x | Fold of selectivity [4]: 14× | Kd [4]: 0.0074 µM
SMILES: CO[C@H]1C[C@](c2cccc(N3Cc4c(cc(CNC56CC(C5)C6)cc4C(F)(F)F)C3=O)c2)(c2nncn2C)C1 [Compound 485, 6-((bicyclo[1.1.1]pentan-1-ylamino)methyl)-2-(3-((1r,3r)-3-methoxy-1-(4-methyl-4H-1,2,4-triazol-3-yl)cyclobutyl)phenyl)-4-(trifluoromethyl)isoindolin-1-one]

IC50 [1]: 0.11 µM | Kd [2]: 0.098 µM | IC50 [3]: 0.018 µM | (fold-selectivity) Cbl-b and C-Cbl Selectivity [3]: 6.0x | Fold of selectivity [4]: 11× | Kd [4]: 0.0082 µM
SMILES: CO[C@H]1C[C@](c2cccc(N3Cc4c(cc(CNCC5(F)CC5)cc4C(F)(F)F)C3=O)c2)(c2nncn2C)C1 [Compound 486, 6-((((1-fluorocyclopropyl)-methyl)amino)methyl)-2-(3-((1r,3r)-3-methoxy-1-(4-methyl-4H-1,2,4-triazol-3-yl)cyclobutyl)phenyl)-4-(trifluoromethyl)isoindolin-1-one]
